# Test results taken from ChEMBL document CHEMBL5537158, “Polymyxins with Potent Antibacterial Activity against Colistin-Resistant Pathogens: Fine-Tuning Hydrophobicity with Unnatural Amino Acids” (J Med Chem, 2024).
# Positions of bridges follow the written chain, without caps; N, C: chain ends. Non-standard residues stand in square brackets, D forms with d. Residues, ends and D or L forms follow the SMILES beside them. *: point of attachment. dPhe(4-CF3) = N[C@H](Cc1ccc(C(F)(F)F)cc1)C(=O)O; dPhe(F5) = N[C@H](Cc1c(F)c(F)c(F)c(F)c1F)C(=O)O; Phe(4-Br) = N[C@@H](Cc1ccc(Br)cc1)C(=O)O; Phe(4-Cl) = N[C@@H](Cc1ccc(Cl)cc1)C(=O)O; Phe(3-F) = N[C@@H](Cc1cccc(F)c1)C(=O)O; Phe(4-F) = N[C@@H](Cc1ccc(F)cc1)C(=O)O; dPhe(3-F) = N[C@H](Cc1cccc(F)c1)C(=O)O; dPhe(4-F) = N[C@H](Cc1ccc(F)cc1)C(=O)O; d(hhPhe) = N[C@H](CCCc1ccccc1)C(=O)O; d(hPhe) = N[C@H](CCc1ccccc1)C(=O)O; hhPhe = N[C@@H](CCCc1ccccc1)C(=O)O; d(hLeu) = CC(C)CC[C@@H](N)C(=O)O; dAoc(2) = CCCCCC[C@@H](N)C(=O)O; Octanoyl = CCCCCCCC(=O)*; Dab = NCC[C@H](N)C(=O)O
# Key:
# Acinetobacter baumannii [1] = assay: Antimicrobial activity against colistin resistant Acinetobacter baumannii ATCC 3658/17 assessed as bacterial growth inhibition incubated for 20 hrs by broth microdilution method; type: functional
# Pseudomonas aeruginosa [2] = assay: Antimicrobial activity against Pseudomonas aeruginosa PAO1 assessed as bacterial growth inhibition incubated for 20 hrs by broth microdilution method; type: functional
# Escherichia coli [3] = assay: Antibacterial activity against Escherichia coli ATCC 25922 assessed as bacterial growth inhibition incubated for 20 hrs by broth microdilution method; type: functional
# Acinetobacter baumannii [4] = assay: Antimicrobial activity against Acinetobacter baumannii ATCC 19606 assessed as bacterial growth inhibition incubated for 20 hrs by broth microdilution method; type: functional
# Klebsiella pneumoniae = assay: Antimicrobial activity against Klebsiella pneumoniae ATCC 13883 assessed as bacterial growth inhibition incubated for 20 hrs by broth microdilution method; type: functional
# [5] = Hemolytic activity in human RBC at 400 ug/ml after 1 hr; type: toxicity, cell-based, Erythrocyte; conditions: red blood cells (erythrocytes), at 400 µg/mL, read-out: Activity
# Pseudomonas aeruginosa [6] = assay: Antimicrobial activity against colistin resistant Pseudomonas aeruginosa 7197/19 assessed as bacterial growth inhibition incubated for 20 hrs by broth microdilution method; type: functional
# Escherichia coli [7] = assay: Antimicrobial activity against […] Escherichia coli harboring mcr-1 assessed as bacterial growth inhibition incubated for 20 hrs by broth microdilution method; type: functional
structure (smiles),measurement,setting,value
CCCCCCCC(=O)N[C@@H](CCN)C(=O)N[C@H](C(=O)N[C@@H](CCN)C(=O)N[C@H]1CCNC(=O)[C@H]([C@@H](C)O)NC(=O)[C@H](CCN)NC(=O)[C@H](CCN)NC(=O)[C@H](CC(C)C)NC(=O)[C@@H](CCc2ccccc2)NC(=O)[C@H](CCN)NC1=O)[C@@H](C)O (Octanoyl-[Dab]T[Dab][Dab][Dab][d(hPhe)]L[Dab][Dab]T; lactam 4-C),MIC,Acinetobacter baumannii [1],4 µg/mL
same,MIC,Pseudomonas aeruginosa [2],0.25 µg/mL
same,MIC,Escherichia coli [3],0.25 µg/mL
CCCCCCCC(=O)N[C@@H](CCN)C(=O)N[C@H](C(=O)N[C@@H](CCN)C(=O)N[C@H]1CCNC(=O)[C@H]([C@@H](C)O)NC(=O)[C@H](CCN)NC(=O)[C@H](CCN)NC(=O)[C@H](CC(C)C)NC(=O)[C@@H](Cc2c(F)c(F)c(F)c(F)c2F)NC(=O)[C@H](CCN)NC1=O)[C@@H](C)O (Octanoyl-[Dab]T[Dab][Dab][Dab][dPhe(F5)]L[Dab][Dab]T; lactam 4-C),MIC,Acinetobacter baumannii [1],0.5 µg/mL
same,MIC,Acinetobacter baumannii [4],< 0.125 µg/mL
same,MIC,Pseudomonas aeruginosa [2],0.25 µg/mL
same,MIC,Escherichia coli [3],< 0.125 µg/mL
CC(=O)N[C@H](Cc1ccc(Br)cc1)C(=O)N[C@@H](CCN)C(=O)N[C@H](C(=O)N[C@@H](CCN)C(=O)N[C@H]1CCNC(=O)[C@H]([C@@H](C)O)NC(=O)[C@H](CCN)NC(=O)[C@H](CCN)NC(=O)[C@H](CC(C)C)NC(=O)[C@@H](Cc2ccccc2)NC(=O)[C@@H](CCN)NC1=O)[C@H](C)O,MIC,Klebsiella pneumoniae,8 µg/mL
same,"hemolysis at 1 h, 400 ug/ml",[5],< 10%
same,MIC,Pseudomonas aeruginosa [2],0.125 µg/mL
same,MIC,Escherichia coli [3],0.06 µg/mL
same,MIC,Pseudomonas aeruginosa [6],16 µg/mL
CCCCCCCC(=O)N[C@@H](CCN)C(=O)N[C@H](C(=O)N[C@@H](CCN)C(=O)N[C@H]1CCNC(=O)[C@H]([C@@H](C)O)NC(=O)[C@H](CCN)NC(=O)[C@H](CCN)NC(=O)[C@H](CCCc2ccccc2)NC(=O)[C@@H](CC(C)C)NC(=O)[C@H](CCN)NC1=O)[C@@H](C)O (Octanoyl-[Dab]T[Dab][Dab][Dab][dL][hhPhe][Dab][Dab]T; lactam 4-C),MIC,Acinetobacter baumannii [1],0.5 µg/mL
same,MIC,Escherichia coli [7],1 µg/mL
same,MIC,Acinetobacter baumannii [4],< 0.125 µg/mL
same,MIC,Pseudomonas aeruginosa [2],0.5 µg/mL
same,MIC,Escherichia coli [3],0.5 µg/mL
same,MIC,Pseudomonas aeruginosa [6],0.5 µg/mL
CCCCCCCC(=O)N[C@@H](CCN)C(=O)N[C@H](C(=O)N[C@@H](CCN)C(=O)N[C@H]1CCNC(=O)[C@H]([C@@H](C)O)NC(=O)[C@H](CCN)NC(=O)[C@H](CCN)NC(=O)[C@H](Cc2ccc(Cl)cc2)NC(=O)[C@@H](CC(C)C)NC(=O)[C@H](CCN)NC1=O)[C@@H](C)O (Octanoyl-[Dab]T[Dab][Dab][Dab][dL][Phe(4-Cl)][Dab][Dab]T; lactam 4-C),MIC,Acinetobacter baumannii [1],1 µg/mL
same,MIC,Acinetobacter baumannii [4],0.125 µg/mL
same,MIC,Pseudomonas aeruginosa [2],0.25 µg/mL
CCCCCCCC(=O)N[C@@H](CCN)C(=O)N[C@H](C(=O)N[C@@H](CCN)C(=O)N[C@H]1CCNC(=O)[C@H]([C@@H](C)O)NC(=O)[C@H](CCN)NC(=O)[C@H](CCN)NC(=O)[C@H](Cc2ccccc2)NC(=O)[C@@H](CCCCCC)NC(=O)[C@H](CCN)NC1=O)[C@@H](C)O (Octanoyl-[Dab]T[Dab][Dab][Dab][dAoc(2)]F[Dab][Dab]T; lactam 4-C),MIC,Klebsiella pneumoniae,1 µg/mL
same,MIC,Acinetobacter baumannii [1],0.5 µg/mL
same,MIC,Acinetobacter baumannii [4],0.25 µg/mL
same,MIC,Escherichia coli [3],0.25 µg/mL
same,MIC,Pseudomonas aeruginosa [6],0.25 µg/mL
CCCCCCCC(=O)N[C@@H](CCN)C(=O)N[C@H](C(=O)N[C@@H](CCN)C(=O)N[C@H]1CCNC(=O)[C@H]([C@@H](C)O)NC(=O)[C@H](CCN)NC(=O)[C@H](CCN)NC(=O)[C@H](Cc2ccc(Br)cc2)NC(=O)[C@@H](CC(C)C)NC(=O)[C@H](CCN)NC1=O)[C@@H](C)O (Octanoyl-[Dab]T[Dab][Dab][Dab][dL][Phe(4-Br)][Dab][Dab]T; lactam 4-C),MIC,Acinetobacter baumannii [1],1 µg/mL
same,MIC,Acinetobacter baumannii [4],0.25 µg/mL
same,MIC,Pseudomonas aeruginosa [2],0.25 µg/mL
CC(=O)N[C@H](Cc1cccc(F)c1)C(=O)N[C@@H](CCN)C(=O)N[C@H](C(=O)N[C@@H](CCN)C(=O)N[C@H]1CCNC(=O)[C@H]([C@@H](C)O)NC(=O)[C@H](CCN)NC(=O)[C@H](CCN)NC(=O)[C@H](CC(C)C)NC(=O)[C@@H](Cc2ccccc2)NC(=O)[C@@H](CCN)NC1=O)[C@H](C)O,"hemolysis at 1 h, 400 ug/ml",[5],< 10%
same,MIC,Acinetobacter baumannii [1],16 µg/mL
same,MIC,Acinetobacter baumannii [4],1 µg/mL
same,MIC,Pseudomonas aeruginosa [2],0.25 µg/mL
same,MIC,Escherichia coli [3],0.25 µg/mL
CCCCCCCC(=O)N[C@@H](CCN)C(=O)N[C@H](C(=O)N[C@@H](CCN)C(=O)N[C@H]1CCNC(=O)[C@H]([C@@H](C)O)NC(=O)[C@H](CCN)NC(=O)[C@H](CCN)NC(=O)[C@H](CC(C)C)NC(=O)[C@@H](Cc2cccc(F)c2)NC(=O)[C@H](CCN)NC1=O)[C@@H](C)O (Octanoyl-[Dab]T[Dab][Dab][Dab][dPhe(3-F)]L[Dab][Dab]T; lactam 4-C),MIC,Acinetobacter baumannii [1],4 µg/mL
same,MIC,Acinetobacter baumannii [4],0.25 µg/mL
same,MIC,Pseudomonas aeruginosa [2],0.25 µg/mL
CCCCCCCC(=O)N[C@@H](CCN)C(=O)N[C@H](C(=O)N[C@@H](CCN)C(=O)N[C@H]1CCNC(=O)[C@H]([C@@H](C)O)NC(=O)[C@H](CCN)NC(=O)[C@H](CCN)NC(=O)[C@H](Cc2ccc(F)cc2)NC(=O)[C@@H](CC(C)C)NC(=O)[C@H](CCN)NC1=O)[C@@H](C)O (Octanoyl-[Dab]T[Dab][Dab][Dab][dL][Phe(4-F)][Dab][Dab]T; lactam 4-C),MIC,Acinetobacter baumannii [1],16 µg/mL
same,MIC,Escherichia coli [7],2 µg/mL
same,MIC,Acinetobacter baumannii [4],0.25 µg/mL
same,MIC,Pseudomonas aeruginosa [2],0.125 µg/mL
same,MIC,Pseudomonas aeruginosa [6],32 µg/mL
CCCCCCCC(=O)N[C@@H](CCN)C(=O)N[C@H](C(=O)N[C@@H](CCN)C(=O)N[C@H]1CCNC(=O)[C@H]([C@@H](C)O)NC(=O)[C@H](CCN)NC(=O)[C@H](CCN)NC(=O)[C@H](CC(C)C)NC(=O)[C@@H](Cc2ccc(F)cc2)NC(=O)[C@H](CCN)NC1=O)[C@@H](C)O (Octanoyl-[Dab]T[Dab][Dab][Dab][dPhe(4-F)]L[Dab][Dab]T; lactam 4-C),MIC,Acinetobacter baumannii [1],0.25 µg/mL
same,MIC,Escherichia coli [7],2 µg/mL
same,MIC,Acinetobacter baumannii [4],0.06 µg/mL
same,MIC,Escherichia coli [3],0.03 µg/mL
CCCCCCCC(=O)N[C@@H](CCN)C(=O)N[C@H](C(=O)N[C@@H](CCN)C(=O)N[C@H]1CCNC(=O)[C@H]([C@@H](C)O)NC(=O)[C@H](CCN)NC(=O)[C@H](CCN)NC(=O)[C@H](CC(C)C)NC(=O)[C@@H](Cc2ccc(C(F)(F)F)cc2)NC(=O)[C@H](CCN)NC1=O)[C@@H](C)O (Octanoyl-[Dab]T[Dab][Dab][Dab][dPhe(4-CF3)]L[Dab][Dab]T; lactam 4-C),MIC,Acinetobacter baumannii [1],0.5 µg/mL
same,MIC,Escherichia coli [7],1 µg/mL
same,MIC,Acinetobacter baumannii [4],0.25 µg/mL
same,MIC,Escherichia coli [3],0.25 µg/mL
same,MIC,Pseudomonas aeruginosa [6],0.25 µg/mL
CC(=O)N[C@H](Cc1ccc(Cl)cc1)C(=O)N[C@@H](CCN)C(=O)N[C@H](C(=O)N[C@@H](CCN)C(=O)N[C@H]1CCNC(=O)[C@H]([C@@H](C)O)NC(=O)[C@H](CCN)NC(=O)[C@H](CCN)NC(=O)[C@H](CC(C)C)NC(=O)[C@@H](Cc2ccccc2)NC(=O)[C@@H](CCN)NC1=O)[C@H](C)O,MIC,Klebsiella pneumoniae,16 µg/mL
same,"hemolysis at 1 h, 400 ug/ml",[5],< 10%
same,MIC,Acinetobacter baumannii [4],0.5 µg/mL
CCCCCCCC(=O)N[C@@H](CCN)C(=O)N[C@H](C(=O)N[C@@H](CCN)C(=O)N[C@H]1CCNC(=O)[C@H]([C@@H](C)O)NC(=O)[C@H](CCN)NC(=O)[C@H](CCN)NC(=O)[C@H](Cc2ccccc2)NC(=O)[C@@H](CCCc2ccccc2)NC(=O)[C@H](CCN)NC1=O)[C@@H](C)O (Octanoyl-[Dab]T[Dab][Dab][Dab][d(hhPhe)]F[Dab][Dab]T; lactam 4-C),MIC,Acinetobacter baumannii [1],1 µg/mL
same,MIC,Escherichia coli [7],2 µg/mL
same,MIC,Escherichia coli [3],0.25 µg/mL
same,MIC,Pseudomonas aeruginosa [6],0.5 µg/mL
CCCCCCCC(=O)N[C@@H](CCN)C(=O)N[C@H](C(=O)N[C@@H](CCN)C(=O)N[C@H]1CCNC(=O)[C@H]([C@@H](C)O)NC(=O)[C@H](CCN)NC(=O)[C@H](CCN)NC(=O)[C@H](Cc2cccc(F)c2)NC(=O)[C@@H](CC(C)C)NC(=O)[C@H](CCN)NC1=O)[C@@H](C)O (Octanoyl-[Dab]T[Dab][Dab][Dab][dL][Phe(3-F)][Dab][Dab]T; lactam 4-C),MIC,Escherichia coli [7],4 µg/mL
same,MIC,Acinetobacter baumannii [4],0.25 µg/mL
same,MIC,Escherichia coli [3],0.25 µg/mL
same,MIC,Pseudomonas aeruginosa [6],1 µg/mL
CCCCCCCC(=O)N[C@@H](CCN)C(=O)N[C@H](C(=O)N[C@@H](CCN)C(=O)N[C@H]1CCNC(=O)[C@H]([C@@H](C)O)NC(=O)[C@H](CCN)NC(=O)[C@H](CCN)NC(=O)[C@H](Cc2ccccc2)NC(=O)[C@@H](CCC(C)C)NC(=O)[C@H](CCN)NC1=O)[C@@H](C)O (Octanoyl-[Dab]T[Dab][Dab][Dab][d(hLeu)]F[Dab][Dab]T; lactam 4-C),MIC,Klebsiella pneumoniae,0.5 µg/mL
same,MIC,Acinetobacter baumannii [1],1 µg/mL
same,MIC,Acinetobacter baumannii [4],< 0.125 µg/mL
same,MIC,Escherichia coli [3],< 0.125 µg/mL
same,MIC,Pseudomonas aeruginosa [6],0.23 µg/mL
CCCCCCCC(=O)N[C@@H](CCN)C(=O)N[C@H](C(=O)N[C@@H](CCN)C(=O)N[C@H]1CCNC(=O)[C@H]([C@@H](C)O)NC(=O)[C@H](CCN)NC(=O)[C@H](CCN)NC(=O)[C@H](CC(C)C)NC(=O)[C@@H](CCCc2ccccc2)NC(=O)[C@H](CCN)NC1=O)[C@@H](C)O (Octanoyl-[Dab]T[Dab][Dab][Dab][d(hhPhe)]L[Dab][Dab]T; lactam 4-C),MIC,Acinetobacter baumannii [4],< 0.125 µg/mL
same,MIC,Escherichia coli [3],< 0.125 µg/mL
same,MIC,Pseudomonas aeruginosa [6],0.5 µg/mL
